Patent US20120058961A1, “Pharmaceutical Composition for Treating Cancers” (HENKAN PHARMACEUTICAL CO., LTD., priority 2010, published 2012)

System: Human prostatic carcinoma PC-3 cells
Assay: Apoptosis assay (cell death detection ELISA, nucleosome level) in PC-3 cells
Format: cell-based
Method: Human prostatic carcinoma PC-3 cells (ATCC, CRL-1435, USA) were used for apoptosis assay. The apoptosis test was conducted following the method as described by Guseva et al. […] The cell death of each test was detected by ELISA following the method as provided by Holdenrieder et al. (Holdenrieder et al., Quantification of nucleosomes in serum by the cell death detection ELISA^plus. Roche Applied Science Biochemica. 1: 25-27, 2002). The cells were collected after incubation, and then lysed and evaluated for nucleosome levels by ELISA kit (Cell Death Detection ELISA^PLUS Kit, Roche, 1774425). The read absorbance at 405 nm was measured for each test compound or a vehicle and the values of apoptosis % were calculated. […] Assay Reference FasL (3 nM) was added to the control wells (named as Total wells) and the Incubation buffer to the Blank wells. HK-06-[…] at a concentration of 8 μM or 3 μM was added to each well, and the plate was then incubated in Antagonist buffer for 16 hours at 37° C., 5% CO2. The nucleosome level of each well was determined by the cell death detection kit. […] The plate was then incubated in Agonist buffer for 16 hours at 37° C., 5% CO2. The nucleosome level of each well was determined by the cell death detection kit. In the assays for SAHA and HK-06-[…], SAHA at a concentration of 0.1 μM, 1 μM, 10 μM, 100 μM or 300 μM was replaced for the NaB. The HK-06-[…] at a concentration of 4.5 μM was used. Results are expressed as a percentage of the group treated with the test compound as compared to that of the control group.

SMILES | means of Apoptosis % (8 uM HK-06-D01 only (FIG. 1B)) | means of Apoptosis % (8 uM HK-06-D01 only as printed (FIG. 1C)) | means of Apoptosis % (8 uM HK-06-D01 only, 16 hours, relative to 3 nM Fas Ligand = 100% (FIG. 1A)) | means of Apoptosis % (0.3 mM NaB only (FIG. 1B)) | means of Apoptosis % (0.3 mM NaB only as printed (FIG. 1C)) | means of Apoptosis % (1 mM NaB only, 16 hours, relative to 3 nM Fas Ligand = 100% (FIG. 1A))
C[C@H](CCC1(O)O[C@H]2C[C@H]3[C@@H]4CC=C5C[C@@H](O[C@@H]6O[C@H](CO)[C@@H](O[C@@H]7O[C@@H](C)[C@H](O[C@@H]8O[C@@H](C)[C@H](O)[C@@H](O)[C@H]8O)[C@@H](O)[C@H]7O)[C@H](O)[C@H]6O[C@@H]6O[C@@H](C)[C@H](O)[C@@H](O)[C@H]6O)CC[C@]5(C)[C@H]4CC[C@]3(C)[C@H]2[C@@H]1C)CO[C@@H]1O[C@H](CO)[C@@H](O)[C@H](O)[C@H]1O (stereo partly drawn) [HK-06-D01, (25R)-26-O-beta-D-glucopyranosyl-22-hydroxy-5-ene-furostan-3beta, 26-diol-3-O-alpha-L-rhamnopyranosyl-(1→4)-alpha-L-rhamnopyranosyl-(1→4)-[alpha-L-rhamnopyranosyl-(1→2)]-beta-D-glucopyranoside] | 51% | 5% | 46.67% | – | – | –
CCCC(=O)[O-].[Na+] [NaB, sodium butyrate] | – | – | – | 4% | 3% | 29.67%
